Experimental data published in patent US4904667A, “1H-1,2,4-thiadiazolo(3,4-b)quinazolin-5-one-2,2-dioxides, and a method for increasing the cardiac output of a mammal with them” (Ortho Pharmaceutical Corporation, priority 1989, dated 1990).
Where two headings read alike, the source gives them in different places.

Key:
[1] = test system: dog tracheal smooth muscle; test: Procedure II: Inhibition of calcium dependent smooth muscle contraction (KCl-challenged dog tracheal rings); settings: Canis lupus familiaris, 50 mM KCl contraction, dog trachea
Procedure: INHIBITION OF CALCIUM DEPENDENT SMOOTH MUSCLE CONTRACTION
Farley, J. M. and Miles, P. R. The Sources of Calcium for Acetylcholine-Induced Contractions of Dog Tracheal Smooth Muscle. J. Pharmacol. Exp. Ther. 207: 340-346,l 1978.
Canines, guinea pigs and rabbits
Trachea from dogs killed by excess KCl injection are stored overnight at 4° C. in oxygenated Krebs-Henseleit buffer. Tracheal rings, one cartilage segment wide (5-10 mm), are cut starting from the bronchial end. After cutting the cartilage, the trachealis muscle tissue is suspended in oxygenated Krebs-Henseleit buffer at 37° C. in a 25 ml tissue bath. After a 60 minutes equilibration period, the tissues are challenged with 10 μM carbachol. After 5 minutes the tissues are rinsed and allowed to rest 50 minutes. The tissues are then challenged with 50 mM KCl and, after 30 minutes, the contractions are quantitated. The tissues are then rinsed and reequilibrated for 50 minutes. Test compounds are then added for 10 minutes, and the tissue is rechallenged with 50 mM KCl. After 30 minutes, the contraction is recorded and used to determine the % inhibition of control.
The percent inhibition of smooth muscle contraction is calculated from response data before and after drug treatment. [formula]

[2] = target: cyclic nucleotide phosphodiesterase fraction III; test: Procedure I: Cyclic Nucleotide Phosphodiesterase Assay; format: biochemical
Dog = test: Procedure III: Acute In Vivo Cardiotonic Evaluation (cardiac force in anesthetized dogs); settings: for Procedure III % Change CF (cardiac force): dose 1.9 mpk, i.v., anesthetized dog, vs pretreatment control
Procedure: Acute In Vivo Cardiotonic Evaluation
Cardiotonic Activity of Amrinone-Win 40680. Alousi, A. A., Farah, A. I., Lester, G. Y. and Opalka, C. J. Circ. Res. 45:666, 1979.
Adult mongrel dogs are anesthetized with sodium pentobarbital and artifically respired. Arterial pressure is recorded via a femoral artery and the pressure pulse is used to trigger a cardiotachometer for heart rate. Left ventricular pressure is measured with a Millar catheter and dP/dt is derived. Cardiac output is determined by measuring ascending aortic blood flow with an electromagnetic flow probe and myocardial contractile force is measured with a Walton Brodie strain gauge sutured to the right ventricle. Lead II EKG is also recorded.
A standard dose of dopamine or dobutamine is administered to assess myocardial responsiveness.
Test compounds are administered by i.v. infusion or bolus administration and the effects on cardiovascular parameters are determined.
Dose related effects of the test compound on blood pressure, heart rate, dP/dt max. (dp/dt represents the rate at which blood pressure rises), cardiac force, and cardiac output are compared to pretreatment control values, expressed as a % change and rated for activity. Statistical evaluations are made using the appropriate parametric test against a vehicle control.

[3] = concentration inhibiting 50% of cyclic nucleotide phosphodiesterase activity, cyclic AMP substrate, pH 7.4, read-out: Procedure I IC50

Compound | inhibition at 10 µM [1] | IC50 [2, 3] | inhibition at 2 µM [1] | Procedure III % Change CF (cardiac force) (Dog) | cardiac force increased (Dog; dog, intravenously at 1.9 mg/kg) | IC50 ([2]; fraction III, read-out: IC50 versus cyclic nucleotide phosphodiesterase fraction III)
O=c1c2ccc(Cl)cc2nc2n1CS(=O)(=O)N2 [Example 7, 8-Chloro-1H-1,2,4-thiadiazolo[3,4-b]quinazolin-5-one-2,2-dioxide] | 31% | 150 µM |  |  |  | 
COc1ccc2nc3n(c(=O)c2c1OC)CS(=O)(=O)N3 [Example 4, 6,7-Dimethoxy-1H-1,2,4-thiadiazolo[3,4-b]quinazolin-5-one-2,2-dioxide] |  |  | 43% | 22% |  | 
CN(C(=O)CCCOc1ccc2nc3n(c(=O)c2c1)CS(=O)(=O)N3)C1CCCCC1 [Example 9, 7-(N-Cyclohexyl-N-methyl-4-amino-4-oxobutyloxy)-1H-1,2,4-thiadiazolo[3,4-b]quinazolin-5-one-2,2-dioxide] |  | 13 µM |  | 37% | 37% | 13 µM
O=c1c2cc(Cl)c(Cl)cc2nc2n1CS(=O)(=O)N2 [Example 5, 7,8-Dichloro-1H-1,2,4-thiadiazolo[3,4-b]quinazolin-5-one-2,2-dioxide] |  |  | 11% |  |  | 
O=c1c2cc(Cl)ccc2nc2n1CS(=O)(=O)N2 [Example 6, 7-Chloro-1H-1,2,4-thiadiazolo[3,4-b]quinazolin-5-one-2,2-dioxide] | 18% | 70 µM |  |  |  | 
O=c1c2cc([N+](=O)[O-])ccc2nc2n1CS(=O)(=O)N2 [Example 2, 7-Nitro-1H-1,2,4-thiadiazolo[3,4-b]quinazolin-5-one-2,2-dioxide] | 9% |  |  |  |  | 
COc1cc2nc3n(c(=O)c2cc1OC)CS(=O)(=O)N3 [Example 3, 7,8-Dimethoxy-1H-1,2,4-thiadiazolo[3,4-b]quinazolin-5-one-2,2-dioxide] |  | 35 µM | 13% | 8% |  | 
O=c1c2ccccc2nc2n1CS(=O)(=O)N2 [Example 8, 1H-1,2,4-Thiadiazolo[3,4-b]quinazolin-5-one-2,2-dioxide] | 20% | 150 µM |  |  |  | 
